Data on one compound can be found in patent publication US11730714B2, “Compounds for the treatment of neuromuscular disorders” (NMD PHARMA A/S, priority 2017, dated 2023).

The test system of data set [1] is rat soleus muscles. Type of data set: cell-based. The note with it: 10 and 25 μM C8; 1 μM μ-conotoxin GiiiB; vs control conditions.
Data set [2] is described as follows: Pharmacokinetic analysis of C8 in rats, single I.P. dose. In kind it is in vivo, rat. The note with it: one-bolus I.P. injection. As to the method:
This part of the study was performed by Pipeline Biotech A/S (Spørring, Denmark). […] Plasma concentrations (free and bound) were determined by OnTarget Chemistry (Uppsala, Sweden, Project No.: PB243-001).
Before conducting in vivo experiments with animal models of myasthenia gravis, some pharmacokinetic details were obtained for C8 in response to one-bolus I.P. injection.

Data set [3] concerns isolated rat soleus muscles. In words: Recovery of nerve-stimulated force in isolated rat soleus muscles exposed to sub-maximal tubocurarine. Type of data set: cell-based. The note with it: change in AUC vs AUC after 40 min in tubocurarine before addition. The procedure: Experiments were performed using rat soleus muscles from either young (4-wk-old) or adult Wistar rats (12-14-week-old). Animal handling, killing and isolation of muscle is described elsewhere All experiments were performed using normal Krebs-Ringer bicarbonate solution (NKR). In solutions with elevated Mg^2+, MgCl2 was added to NKR-solution causing minor increases in osmolarity and ionic strength. In solutions with elevated K^+, 4 mM NaCl was replaced by 4 mM KCl in the NKR.
In all contraction experiments, isometric force production was determined and force produced during contractions was quantified by measuring the integral of the force response (AUC). Stimulation and force recordings have been described elsewhere. […] In these latter experiments, extracellular recordings of action potentials (M-waves) could be measured without temporal overlap with stimulation artefacts.
The aim was to find compounds that by inhibition of CIC-1 channels can recover nerve-stimulated force under conditions of fatigue including conditions where fatigue is caused by compromised neuromuscular transmission. Neuromuscular transmission dysfunction can develop because of both pre- and/or post-synaptic complications in connection with a disorder or as part of neuromuscular blockade during/after surgery. In the initial series of drug testing, experiments were performed with isolated muscles in the presence of sub-maximal ACh receptor antagonist tubocurarine. Since the inclusion of tubocurarine caused a partial loss of neuromuscular transmission this experiment mimics the conditions in myasthenia gravis and neuromuscular blockade. To mimic conditions with pre-synaptic complication (Lambert Eaton syndrome, motor neuron disorder, polyneuropathy) the intact nerve-muscle preparations were incubated at elevated extracellular Mg^2+, which is known to suppress release of ACh from nerve terminals of motor neurons.
The experiments also illustrate that field stimulation of the entire nerve-muscle preparation selectively activates the motor nerve when short-duration pulses (0.02 vs 0.2 ms) were used. In FIG. 1A the preparation was stimulated either via field stimulation or via nerve-stimulation using a suction electrode. With the suction electrode only the nerve could be stimulated. When exposed to a submaximal concentration of the ACh receptor antagonist tubocurarine (0.2 μM) a clear drop in peak force and a further decline (or fade) in force during the stimulation developed. This drop in force clearly reflected compromised neuromuscular transmission, as the decline in peak force and fading were not seen with direct stimulation of the muscle. […] Thus, loss of M-wave and force with tubocurarine reflected partial blockade of neuromuscular function. Such fading of force and M-waves during stimulation represent clinical hallmarks of both myasthenia gravis and neuromuscular blockade in connection with surgery. In FIG. 1B, observations with normal (0.2 ms) and short-duration (0.02 ms) pulses have been compared. It can be seen that only with short-duration pulses did tubocurarine cause a decline in peak force and fading (FIG. 1B). This confirms that short-duration pulses in field stimulation could be used as specific nerve-stimulation. […] Elevated extracellular Mg^2+ could thus be used to partially block neuromuscular transmission and thus be used as a model of conditions with compromised pre-synaptic function (Lambert Eaton syndrome, amyotrophic lateral sclerosis, spinal muscular atrophy). […]

Data set [4] relates to rat soleus muscles. The experiment in a line: Mg2+ concentration required to depress nerve-stimulated force by 50% (Kd,Mg2+), combination with 3,4-AP. In kind it is cell-based. The note with it: combination of C8 and 3,4-diaminopyridine; elevated extracellular Mg2+. The procedure: FIGS. 6A-6E. […] Muscles from 4-week-old rats were stimulated to contract by activating the motor nerve with short duration pulses in field stimulation. Muscles contracted every 10 min for 2 s in response to 30 Hz stimulation. Four different experimental conditions were used. […] C) similar to A) but this muscle had been pre-incubated with 3,4-AP. […] The force integral (AUC) was determined at each extracellular Mg^2+ concentration. AUC was plotted against Mg^2+ concentration and the data was fitted to a sigmoidal function. This provided the extracellular Mg^2+ concentration that was required to reduce the nerve-stimulated force to 50% (Mg50) under the four different conditions (see Table 5).
While the use of tubocurarine mimics conditions with reduced neuromuscular transmission due to post-synaptic dysfunction (myasthenia gravis, neuromuscular blockade), the experiments with elevated extracellular Mg^2+ mimics conditions with pre-synaptic dysfunction akin to a range of neuromuscular disorders including Lambert Eaton syndrome, motor neuron disorders and polyneuropathy. […] Based on this it was determined whether recovery of nerve-stimulated force at elevated extracellular Mg^2+ with CIC-1 inhibiting compounds could be added to force recovery with 3,4-AP. […] To quantify the effect of compounds on Mg^2+ sensitivity the force at the different Mg^2+ concentrations was determined. […]

As for `C[C@H](Oc1ccc(Br)cc1)C(=O)O` [Compound C8, (2S)-2-(4-bromophenoxy)propanoic acid], the EPP amplitude result in the data set with rat soleus muscles [1] is on record as “significantly larger EPPs”. Further, in data set [2], the Cl_obs stood at 48.69 mL/h and the VD_obs came out at 259.62 mL. Also, in data set [3] (50 μM compound, AUC related to force prior to tubocurarine), the “50 μM % change after addition (AUC of nerve-stimulated force)” value was 16%. For the same compound, the “150 μM % change after addition (AUC of nerve-stimulated force)” value in data set [3] (150 μM compound) worked out at 23%. In addition, the “effect on recovery of neuromuscular transmission” value in the data set on rat soleus muscles [4] was “unexpected synergistic effect”.
